According to paper PMC6637216 (BioImpacts : BI, 2019):
“And” between values parts separate entries of the source, which are not always exact repeats. Equal values may be shown once.

Columns and labels:
[1] = target: T1, AChE from Electrophorus electricus (electric eel) (Electrophorus electricus, UniProt O42275); assay: Ellman colorimetric AChE inhibition and kinetics in aqueous phosphate buffer; format: biochemical; conditions: for nH (Hill coefficient) / Vmax / α / α': aqueous buffer
[2] = target: T1, AChE from Electrophorus electricus (electric eel); assay: Ellman AChE inhibition and kinetics in HSA matrix; format: biochemical; conditions: for ΔrIC50, relative decrease in inhibition potency in HSA versus buffer: (IC50(HSA)-IC50(Buffer))/IC50(Buffer)x100; for Vmax / α / α': HSA medium (in parentheses); for nH (Hill coefficient): HSA medium, values in parentheses
[3] = target: AChE (Electrophorus electricus, UniProt O42275); assay: ThT displacement from AChE; format: binding; conditions: quenching of ThT-AChE fluorescence, 0.1 M phosphate buffer pH 8.0
Sequence of AChE (O42275 24-633): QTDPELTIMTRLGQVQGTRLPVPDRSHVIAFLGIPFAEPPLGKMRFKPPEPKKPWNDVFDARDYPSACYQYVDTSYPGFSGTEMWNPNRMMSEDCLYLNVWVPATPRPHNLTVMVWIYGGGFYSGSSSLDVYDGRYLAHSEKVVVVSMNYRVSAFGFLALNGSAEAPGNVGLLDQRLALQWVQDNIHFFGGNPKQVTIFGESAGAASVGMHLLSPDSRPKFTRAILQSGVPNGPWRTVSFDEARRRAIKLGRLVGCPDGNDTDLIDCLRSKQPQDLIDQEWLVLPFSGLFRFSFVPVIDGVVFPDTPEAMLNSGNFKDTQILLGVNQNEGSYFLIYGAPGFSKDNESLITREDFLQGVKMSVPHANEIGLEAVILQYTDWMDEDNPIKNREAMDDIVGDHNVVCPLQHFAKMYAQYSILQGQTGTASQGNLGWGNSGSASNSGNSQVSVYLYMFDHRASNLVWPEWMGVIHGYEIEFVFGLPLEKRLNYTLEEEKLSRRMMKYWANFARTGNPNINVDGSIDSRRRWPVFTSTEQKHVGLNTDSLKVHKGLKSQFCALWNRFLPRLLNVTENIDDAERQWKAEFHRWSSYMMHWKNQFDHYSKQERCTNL

T1 sequence (O42275 24-633): as above

| Structure (SMILES) | IC50 [1] | nH (Hill coefficient) [1] | Vmax ([1]; inhibitor 5 nM) | α ([1]; inhibitor 5 nM) | α' ([1]; inhibitor 5 nM) | Vmax ([1]; inhibitor 10 nM) | α ([1]; inhibitor 10 nM) | α' ([1]; inhibitor 10 nM) | IC50 [2] | ΔrIC50, relative decrease in inhibition potency in HSA versus buffer [2] | Vmax ([2]; inhibitor 5 nM) | α ([2]; inhibitor 5 nM) | α' ([2]; inhibitor 5 nM) | Vmax ([2]; inhibitor 10 nM) | α ([2]; inhibitor 10 nM) | α' ([2]; inhibitor 10 nM) | nH (Hill coefficient) [2] | KSV (Stern-Volmer constant) [3] |
| --- | --- | --- | --- | --- | --- | --- | --- | --- | --- | --- | --- | --- | --- | --- | --- | --- | --- | --- |
| Cc1cc(=O)c2ccc(N)cc2o1 [AMC, 7-amino-2-methylchromone] | 103 ± 11.9 nM | 1.45 ± 0.1 | 670 ± 26 nM/s | 1.2 (1.2) | 1.2 (1.2) | 560 ± 39 nM/s | 1.4 | 1.4 (1.4) | 115 nM | ~ 5% and 5% | 711 ± 47 nM/s | 1.2 (1.2) | 1.2 (1.2) | 557 ± 39 nM/s | 1.5 | 1.4 (1.4) | 1.52±0.1 | 230000 M⁻¹ |
| N#Cc1coc2ccccc2c1=O [CyC, 3-cyanochromone] | 85.1 ± 6.7 nM | 1.51 ± 0.1 | 631 ± 21 nM/s | 1.3 | 1.3 | 538 ± 31 nM/s | 1.5 | 1.5 | 113 nM | ~ 32% and 32% | 730 ± 17 nM/s | 1.1 | 1.1 | 671 ± 30 nM/s | 1.2 | 1.2 | 1.89±0.17 | 370000 M⁻¹ |
